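Five compound concentrations were applied to cells in 96-well plates for 48 hours; endpoints were derived by simple linear interpolation of the resulting dose-response curve. TGI denotes the concentration required for complete inhibition of growth.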
Legend:
Experiment in all cases: NCI-60 cell line screen, 48 h
HOP-62 NSCLC = test system: HOP-62 NSCLC
A498 renal = test system: A498 renal
RXF 393 renal = test system: RXF 393 renal
CAKI-1 renal = test system: CAKI-1 renal
MDA-MB-231 breast = test system: MDA-MB-231 breast
786-0 renal = test system: 786-0 renal
OVCAR-5 ovarian = test system: OVCAR-5 ovarian
PC-3 prostate = test system: PC-3 prostate
IGROV1 ovarian = test system: IGROV1 ovarian
TK-10 renal = test system: TK-10 renal
ACHN renal = test system: ACHN renal
CCRF-CEM leukemia = test system: CCRF-CEM leukemia
K-562 leukemia = test system: K-562 leukemia

Compound	TGI (HOP-62 NSCLC) [µM]	TGI (A498 renal) [µM]	TGI (RXF 393 renal) [µM]	TGI (CAKI-1 renal) [µM]	TGI (MDA-MB-231 breast) [µM]	TGI (786-0 renal) [µM]	TGI (OVCAR-5 ovarian) [µM]	TGI (PC-3 prostate) [µM]	TGI (IGROV1 ovarian) [µM]	TGI (TK-10 renal) [µM]	TGI (ACHN renal) [µM]	TGI (CCRF-CEM leukemia) [µM]	TGI (K-562 leukemia) [µM]
COCCOCCOC1=C(Cl)C(=O)c2c(O)ccc(O)c2C1=O	7.3	13.9	2.99	3.17	4.12	2.61	22.6	17.5	7.37	3.25	3.5	45.1	
CC(C)CCn1c(=O)c2c(=O)[nH][nH]c2c2ccccc21	> 100	> 100			> 100	> 100	> 100	> 100	> 100	> 100	> 100	> 100	> 100
COc1cc(COC(=O)N2CCC2C(=O)O)c([N+](=O)[O-])cc1OC (centres undefined)	> 100	> 100	> 100			> 100	> 100	> 100	> 100	> 100	> 100	> 100	> 100
CN(CCc1ccc(N)cc1)[C@H]1CCCC[C@H]1N1CCCC1	> 100	> 100	> 100	> 100	> 100	> 100	> 100	> 100	> 100	> 100	> 100		> 100
CCOc1cc(NC(C)=O)ccc1C(=O)NN1C(=O)/C(=C/c2cc(OC)c(OC)c(OC)c2)N=C1c1ccccc1		> 100		> 100		> 100	> 100		> 100		> 100	> 100	> 100
COc1ccc(-c2cc(-c3cc(OC)c(OC)c(OC)c3)cc(-c3cc4ccccc4oc3=O)n2)cc1	5.8	17.6	16.1	17.3	8.07	5.34		76.8	24.6	21.1	16.3	> 100	> 100
CCCCOC(=O)C(O)Cc1ccoc1 (centres undefined)	> 100	> 100	> 100		> 100	> 100	> 100	> 100	> 100	> 100	> 100	> 100	> 100
COc1cccc(-c2cc(=O)c3c(C)ccnc3[nH]2)c1	> 100	> 77.1	> 100		> 100	> 100	> 100	> 100	> 100	> 100	> 100	0.218	0.397
S=C1N=C(Cl)C2(NN1)c1ccccc1-c1ccccc12	> 10	> 10		> 10	> 10	> 10			> 10	> 10		> 10	> 10
CN1CN(c2ccccc2)C2(CCN(CCc3csc4ccccc34)CC2)C1=O	26.4		25.3	30.1		30.5	25.3	33.5	52.3	34		46.6	40.1
CC1(C)CC(=O)c2c(nc3ccc4ccccc4c3c2-c2ccc(NC(=O)CCC(=O)Nc3ccc(-c4c5c(nc6ccc7ccccc7c46)CC(C)(C)CC5=O)cc3)cc2)C1	> 100		> 100	> 100	> 100	> 100	> 100	> 100	> 100	> 100	> 100	> 100	> 100
CNC(=O)c1[nH]cnc1/N=N/N(C)N	> 100	> 100	> 100	> 100	> 100	> 100	> 100	> 100	> 100	> 100			> 100
COc1cc2c(cc1OC)CC(N=[N+]=[N-])c1cc(OC)c(OC)cc1/C=C\2 (centres undefined)	> 100	> 100		95.3	> 100	> 100	> 100	> 100	> 100	> 100	> 100		> 100
c1cc2c(c(-c3c4ccccc4nc4ccccc34)c1)CC1(CC2)OCCO1	> 100	> 100	> 100	> 100	> 100	> 100	> 100	> 100	> 100	> 100	> 100		> 100
CC1(C)Oc2ccc3c(=O)cc(-c4ccc(F)cc4)oc3c2C1C(=O)O (centres undefined)	> 100	> 100	> 100	54.6	> 100	> 100	> 100	> 100	> 100	> 100		> 100	> 100
Cc1nc2c(sc3nc4ccccc4n32)c(=O)[nH]1	> 100	> 100	> 100	> 100	> 100	> 100	> 100	> 100	> 100	> 100	> 100	> 100	
CC(C)=CCC/C(C)=C/CC/C(C)=C/CC/C(C)=C/CC/C(C)=C\CC/C(C)=C/CC/C(C)=C/CC/C(C)=C/Cc1cc(O)ccc1O	29.5	3.51		0.703	> 55.2	4.09	36.4	2.44	1.47	> 29.4	> 39.8	> 34.9	26.4
Cc1cn(Cc2ccccc2CCl)c(=O)[nH]c1=O	35.3		23.9	24.8		30.2	43.4	44.2	13.9	33.8	27.1	> 100	56
O=C(CC(C(=O)c1ccoc1)c1ccco1)c1ccco1 (centres undefined)	> 100	> 100	> 100	> 100	> 100	> 100	> 100		> 100	> 100	> 100	> 100	> 100

Reference: PubChem BioAssay (NCI)
